{"source": "paper PMC12105011", "about": "“Cell-Based Progression of Spiroindoline Phenotypic Hits Leads to the Identification of Compounds with Diverging Parasitological Profiles against the Human Malaria Parasite Plasmodium falciparum” (Journal of Medicinal Chemistry, 2025)", "key": {"[1]": {"test_system": "P. falciparum Dd2", "test": "[3H]-hypoxanthine incorporation assay, Dd2 (wt)", "format": "cell-based", "conditions": "Plasmodium falciparum, DD2, read-out: Dd2 IC50, wt Dd2, [3H]-hypoxanthine incorporation assay"}, "[2]": {"test_system": "Dd2 DSM265 (Pfdhodh)", "test": "[3H]-hypoxanthine incorporation assay, lab-generated resistant mutant Dd2 DSM265", "format": "cell-based, Plasmodium falciparum", "description": "(§1) D. Cross-resistance screening\n(§2) Compounds were screened against field multidrug resistant (K1, 7G8, TM90C2B, RF12, Dd2) and sensitive (NF54) strains and a laboratory-generated resistant Dd2 mutant panel of P. falciparum in vitro using the modified [3H]- hypoxanthine incorporation assay.3\n(§3) Plasmodium falciparum was cultivated in a variation of the medium previously described,4 consisting of RPMI 1640 supplemented with 0.5 % ALBUMAX® II, 25 mM Hepes, 25 mM NaHCO3 (pH 7.3), 0.36 mM hypoxanthine, and 100 µg/ml neomycin. Human erythrocytes served as host cells. Cultures were maintained at 37 °C in an atmosphere of 3% O2, 4% CO2, and 93% N2 in humidified modular chambers. Compounds were dissolved by sonication in DMSO (10 mg/ml) and diluted in hypoxanthine-free culture medium. Infected erythrocytes (100 microliter per well with 2.5% hematocrit and 0.3% parasitemia) were added to each drug titrated in 100 microliter duplicates over a 64-fold range.\n(§4) After 48 h incubation, 0.5 microCi of [3H]hypoxanthine in 50 microliter medium was added and plates were incubated for an additional 24 h. Parasites were harvested onto glass-fiber filters and radioactivity was counted using a Betaplate liquid scintillation counter (Wallac, Zurich). The results were recorded as counts per minute (cpm) per well […]\n(§5) at each drug concentration and expressed as a percentage of the untreated controls. Fifty percent inhibitory concentrations (IC50) were estimated by linear interpolation. 5 […]\n(§6) In vitro antiplasmodial blood stage activity was measured using the [3H]-hypoxanthine incorporation assay, which measures dose-dependent drug inhibition of P. falciparum growth.3 Results were expressed as the concentration resulting in 50% inhibition (IC50). […]"}, "[3]": {"test_system": "P. falciparum Dd2", "test": "[3H]-hypoxanthine incorporation assay, Dd2 (wt)", "format": "cell-based, Plasmodium falciparum", "conditions": "read-out: Dd2 IC50; wt Dd2, [3H]-hypoxanthine incorporation assay", "description": "as §1, §2, §3, §4, §5, §6"}, "[4]": {"test_system": "Dd2 ELQ300 (PfcytB)", "test": "[3H]-hypoxanthine incorporation assay, lab-generated resistant mutant Dd2 ELQ300", "format": "cell-based, Plasmodium falciparum", "description": "as §1, §2\nas §3, with “range. […]” for “range.”\nParasites were harvested onto glass-fiber filters and radioactivity was counted using a Betaplate liquid scintillation counter (Wallac, Zurich). The results were recorded as counts per minute (cpm) per well […]\nas §5, §6"}, "[5]": {"test_system": "Dd2 GNF156 (Pfcarl)", "test": "[3H]-hypoxanthine incorporation assay, lab-generated resistant mutant Dd2 GNF156", "format": "cell-based, Plasmodium falciparum", "description": "as §1, §2, §3, §4, §5, §6"}}, "note": "Values joined by “and” are separate entries in the source; they are usually repeats but may differ in a detail not shown here. Equal values may be shown once. Read-outs that look alike come from different tables or passages of the source.", "data": [{"smiles": "Cc1cc(Nc2ccc(S(F)(F)(F)(F)F)cc2)n2nc(C(C)(F)F)nc2n1", "note": "[DSM265, reference compound]", "values": [{"measurement": "IC50", "setting": "[1]", "result": 5.3, "unit": "nM"}, {"measurement": "IC50", "setting": "[2]; Plasmodium falciparum, read-out: Dd2 DSM265 IC50, mutated locus Pfdhodh, [3H]-hypoxanthine incorporation assay", "result": 204, "unit": "nM"}, {"measurement": "IC50", "setting": "[2]; read-out: Dd2 DSM265 IC50, mutated locus Pfdhodh, [3H]-hypoxanthine incorporation assay", "result": 140, "unit": "nM"}, {"measurement": "IC50", "setting": "[3]", "result": 7.4, "unit": "nM"}]}, {"smiles": "COc1cc2[nH]c(C)c(-c3ccc(Oc4ccc(OC(F)(F)F)cc4)cc3)c(=O)c2cc1Cl", "note": "[ELQ300, reference compound]", "values": [{"measurement": "IC50", "setting": "[1]", "result": 13, "unit": "nM"}, {"measurement": "Relative ratio to wt Dd2 IC50", "setting": "[4]; Dd2 ELQ300 (PfcytB)", "result": "20 and 15"}, {"measurement": "IC50", "setting": "[4]; Plasmodium falciparum, DD2, read-out: Dd2 ELQ300 IC50, mutated locus PfcytB, [3H]-hypoxanthine incorporation assay", "result": 254, "unit": "nM"}, {"measurement": "IC50", "setting": "[4]; read-out: Dd2 ELQ300 IC50, mutated locus PfcytB, [3H]-hypoxanthine incorporation assay", "result": 270, "unit": "nM"}, {"measurement": "IC50", "setting": "[3]", "result": 18, "unit": "nM"}]}, {"smiles": "CC1(C)c2nc(-c3ccc(F)cc3)c(Nc3ccc(F)cc3)n2CCN1C(=O)CN", "note": "[GNF156, ganaplacide, reference compound]", "values": [{"measurement": "IC50", "setting": "[1]", "result": 26, "unit": "nM"}, {"measurement": "IC50", "setting": "[3]", "result": 25, "unit": "nM"}, {"measurement": "Relative ratio to wt Dd2 IC50", "setting": "[5]; Dd2 GNF156 (Pfcarl)", "result": 71}, {"measurement": "IC50", "setting": "[5]; Plasmodium falciparum, DD2, read-out: Dd2 GNF156 IC50, mutated locus Pfcarl, [3H]-hypoxanthine incorporation assay", "result": 1930, "unit": "nM"}, {"measurement": "IC50", "setting": "[5]; read-out: Dd2 GNF156 IC50, mutated locus Pfcarl, [3H]-hypoxanthine incorporation assay", "result": 1800, "unit": "nM"}]}]}
